Data published in patent publication US4578489A (priority 1982, dated 1986).

What was measured:
Type in all cases: cell-based
Aspergillus phoenicis = test: Minimum inhibitory concentration against fungi, agar incorporation test, strain L; settings: malt extract/agar
Protocol: (§1) The invention is carried out using the known agar incorporation test in the following fungi:
(L) Aspergillus phoenicis
(§2) in a malt extract/agar (Merck). Inhibition is effected by adding sufficient of each of the various compounds to give final concentrations in the agar of 2, 5, 10, 50 and 100 mg/liter. The concentrations (mg/liters) required to inhibit the growth of the fungi (starting from traces of fungi added dropwise) are illustrated in Table 3.

Alternaria alternata = test: Minimum inhibitory concentration against fungi, agar incorporation test, strain N; settings: malt extract/agar
Protocol: as §1, §2

Proteus vulgaris = test: Minimum inhibitory concentration against bacteria, strain A; settings: 24 hours at 30° C.; tested at 100 and 300 mg/liter
Protocol: (§3) Overnight cultures, grown in Caso peptone bouillon (Merck) of the various strains of bacteria: (A) Proteus vulgaris, (B) Pseudomonas aeruginosa, (C) Enterobacter aerogenes, (D) Serratia marcencens, (E) Alcaligenes denitrificans and (F) Bacillus subtilis are each diluted in a ratio of 1/1000 in saline solution. Sufficient of the suspensions is put into Caso peptone bouillon to dilute the bacteria again in the ratio of 1/1000. Each of the compounds listed in Table 1 is then added in amounts of 100 and 300 mg/liter. After being incubated for 24 hours at 30° C. in a shaking waterbath, the turbidity of the samples is evaluated.

[1] = test system: Alcaligenes denitrificans; test: Minimum inhibitory concentration against bacteria, strain E; settings: 24 hours at 30° C.; tested at 100 and 300 mg/liter
Protocol: as §3

Enterobacter aerogenes = test: Minimum inhibitory concentration against bacteria, strain C; settings: 24 hours at 30° C.; tested at 100 and 300 mg/liter
Protocol: as §3

Endomyces geotrichum = test: Minimum inhibitory concentration against fungi, agar incorporation test, strain Q; settings: malt extract/agar
Protocol: as §1, §2

Serratia marcencens = test: Minimum inhibitory concentration against bacteria, strain D; settings: 24 hours at 30° C.; tested at 100 and 300 mg/liter
Protocol: as §3

Chlorella vulgaris = test: Action against algae: Chlorella vulgaris; design: key: --: no growth on the agar, 3 ppm have destroyed the algae in 6 hours; settings: 3 mg/liter; for Growth on the agar (algae-destroying action): 6 hours exposure, 14 days incubation; for Growth in the medium (growth inhibition): 14 days
Protocol: Cultures of Chlorella vulgaris which had been grown for 14 days in algae nutrient media are diluted in the ratio 1/200 in the algae nutrient medium. Each of the compounds listed in Table 1 is then added in such an amount as to give a final concentration of 3 mg/liter. After incubating for 6 hours, 10 μl of each culture are withdrawn and added dropwise to algae/agar in order to determine the destructive action. After the cultures have incubated for 14 days under illumination (14 hours of light and 10 hours of darkness, alternately), the growth in the algae medium (determination of growth inhibition) and on the algae/agar (determination of algae-destroying action) is assessed visually.

[2] = test system: Cladosporium cladosporioides; test: Minimum inhibitory concentration against fungi, agar incorporation test, strain O; settings: malt extract/agar
Protocol: as §1
(O) Cladosporium cladosporioides
as §2

Aureobasidium pullulans = test: Minimum inhibitory concentration against fungi, agar incorporation test, strain R; settings: malt extract/agar
Protocol: as §1
(R) Aureobasidium pullulans
as §2

Pseudomonas aeruginosa = test: Minimum inhibitory concentration against bacteria, strain B; settings: 24 hours at 30° C.; tested at 100 and 300 mg/liter
Protocol: as §3

Aspergillus niger = test: Minimum inhibitory concentration against fungi, agar incorporation test, strain K; settings: malt extract/agar
Protocol: as §1, §2

Candida albicans = test: Minimum inhibitory concentration against fungi, agar incorporation test, strain P; settings: malt extract/agar
Protocol: as §1, §2

Chaetomium globosum = test: Minimum inhibitory concentration against fungi, agar incorporation test, strain S; settings: malt extract/agar
Protocol: as §1, §2

Penicillium funiculosum = test: Minimum inhibitory concentration against fungi, agar incorporation test, strain M; settings: malt extract/agar
Protocol: as §1
(M) Penicillium funiculosum
as §2

Bacillus subtilis = test: Minimum inhibitory concentration against bacteria, strain F; settings: 24 hours at 30° C.; tested at 100 and 300 mg/liter
Protocol: as §3

Row | Structure (SMILES) | MIC against fungi, strain L (Aspergillus phoenicis) | MIC against fungi, strain N (Alternaria alternata) | MIC against bacteria, strain A (Proteus vulgaris) | MIC against bacteria, strain E [1] | MIC against bacteria, strain C (Enterobacter aerogenes) | MIC against fungi, strain Q (Endomyces geotrichum) | MIC against bacteria, strain D (Serratia marcencens) | Growth on the agar (algae-destroying action) (Chlorella vulgaris) | Growth in the medium (growth inhibition) (Chlorella vulgaris) | MIC against fungi, strain O [2] | MIC against fungi, strain R (Aureobasidium pullulans) | MIC against bacteria, strain B (Pseudomonas aeruginosa) | MIC against fungi, strain K (Aspergillus niger) | MIC against fungi, strain P (Candida albicans) | MIC against fungi, strain S (Chaetomium globosum) | MIC against fungi, strain M (Penicillium funiculosum) | MIC against bacteria, strain F (Bacillus subtilis)
1 | CCCCCCCCCCCC[N+](C)(C)C.CCC[CH2][Sn-]([Cl])([Cl])([CH2]CCC)[CH2]CCC [Example 16, (CH3)3 NC12 H25 / Tributyldichloro] | 2 mg/L | 2 mg/L | 100 mg/L | 100 mg/L | 100 mg/L | 50 mg/L | 100 mg/L | -- | -- | 2 mg/L | 2 mg/L | 100 mg/L | 2 mg/L | 5 mg/L | 2 mg/L | 5 mg/L | 100 mg/L
2 | CCCCCCCCCCCCC(=O)NCCC[N+](C)(C)CC(N)=O.CCC[CH2][Sn-]([Cl])([Cl])([CH2]CCC)[CH2]CCC [Example 30, (C12 H25 CO)NH(CH2) 3 N(CH3)2 (CH2 CONH2) / Tributyldichloro] | ≤ 5 mg/L | ≤ 5 mg/L | 100 mg/L | 100 mg/L | 100 mg/L | 10 mg/L | 100 mg/L | -- | -- | ≤ 5 mg/L | ≤ 5 mg/L | 100 mg/L | ≤ 5 mg/L | ≤ 5 mg/L | ≤ 5 mg/L | 10 mg/L | 100 mg/L
3 | CCCCCCCCCCCCC(=O)NCCC[N+](C)(C)O.CCC[CH2][Sn-]([Cl])([Cl])([CH2]CCC)[CH2]CCC [Example 29, (C12 H25 CO)NH(CH2)3 N(OH)(CH3)2 / Tributyldichloro] | ≤ 5 mg/L | ≤ 5 mg/L | 100 mg/L | 300 mg/L | > 300 mg/L | 10 mg/L | > 300 mg/L | -- | -- | ≤ 5 mg/L | ≤ 5 mg/L | 100 mg/L | ≤ 5 mg/L | ≤ 5 mg/L | ≤ 5 mg/L | 10 mg/L | 100 mg/L
4 | CCC[CH2][Sn-]([Cl])([Cl])([CH2]CCC)[CH2]CCC.CCC[CH2][Sn-]([Cl])([Cl])([CH2]CCC)[CH2]CCC.C[N+](C)(C)CCCCCC[N+](C)(C)C [Example 23, (CH3)3 N(CH2)6 N(CH3)3 / Tributyldichloro] | 10 mg/L | ≤ 5 mg/L | 100 mg/L | 300 mg/L | 300 mg/L | 10 mg/L | > 300 mg/L | -- | -- | ≤ 5 mg/L | ≤ 5 mg/L | 100 mg/L | 10 mg/L | ≤ 5 mg/L | ≤ 5 mg/L | 10 mg/L | 100 mg/L
